Measurements reported in the supplement of paper PMC11061612.

Key:
Carboplatin = compound: C1CC(C1)(C(=O)[O-])C(=O)[O-].N.N.[Pt+2] [Carboplatin]; conditions: max 10 µM
Summary of the method: (§1)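 Plates with 1536 wells received cancer cell lines in 7.5 μl of DMEM/F12 or RPMI containing 10% FBS. After 24 hours at 37°C and 5% CO2, cells were dosed for 72 hours with final DMSO typically 0.2%, and viability was read by CellTiter-Glo 2.0 luminescence scaled between blank-well and DMSO-well means. The single-agent IC50 was taken from a logistic fit of the dose responses made with a non-linear mixed effects model, that logistic curve having two parameters.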

AZD5363 = compound: C1CN(CCC1(C(=O)N[C@@H](CCO)C2=CC=C(C=C2)Cl)N)C3=NC=NC4=C3C=CN4 [AZD5363]; conditions: max 10 µM
Summary of the method: as §1

AZD1775 = compound: C=CCn1c(=O)c2cnc(Nc3ccc(N4CCN(C)CC4)cc3)nc2n1-c1cccc(C(C)(C)O)n1 [AZD1775]; conditions: max 3 µM
Summary of the method: as §1

Trametinib = compound: CC(=O)Nc1cccc(-n2c(=O)n(C3CC3)c(=O)c3c(Nc4ccc(I)cc4F)n(C)c(=O)c(C)c32)c1 [Trametinib]; conditions: max 1 µM
Summary of the method: as §1

Paclitaxel = compound: CC(=O)O[C@H]1C(=O)[C@@]2(C)[C@H]([C@H](OC(=O)c3ccccc3)[C@]3(O)C[C@H](OC(=O)[C@H](O)[C@@H](NC(=O)c4ccccc4)c4ccccc4)C(C)=C1C3(C)C)[C@]1(OC(C)=O)CO[C@@H]1C[C@@H]2O [Paclitaxel]; conditions: max 3 µM
Summary of the method: as §1

Palbociclib = compound: CC(=O)c1c(C)c2cnc(Nc3ccc(N4CCNCC4)cn3)nc2n(C2CCCC2)c1=O [Palbociclib]; conditions: max 10 µM
Summary of the method: as §1

AZD1390 = compound: CC(C)n1c(=O)n(C)c2cnc3cc(F)c(-c4ccc(OCCCN5CCCCC5)nc4)cc3c21 [AZD1390]; conditions: max 0.3 µM
Summary of the method: as §1

Venetoclax = compound: CC1(C)CCC(CN2CCN(c3ccc(C(=O)NS(=O)(=O)c4ccc(NCC5CCOCC5)c([N+](=O)[O-])c4)c(Oc4cnc5[nH]ccc5c4)c3)CC2)=C(c2ccc(Cl)cc2)C1 [Venetoclax]; conditions: max 1 µM
Summary of the method: as §1

Dasatinib = compound: CC1=C(C(=CC=C1)Cl)NC(=O)C2=CN=C(S2)NC3=CC(=NC(=N3)C)N4CCN(CC4)CCO [Dasatinib]; conditions: max 2 µM
Summary of the method: as §1

SG3199 = compound: CC1=CN2[C@@H](C1)C=NC3=CC(=C(C=C3C2=O)OC)OCCCCCOC4=C(C=C5C(=C4)N=C[C@@H]6CC(=CN6C5=O)C)OC [SG3199]; conditions: max 0.001 µM
Summary of the method: as §1

AZD2811 = compound: CCN(CCO)CCCOc1ccc2c(Nc3cc(CC(=O)Nc4cccc(F)c4)[nH]n3)ncnc2c1 [AZD2811]; conditions: max 1 µM
Summary of the method: as §1

SN-38 = compound: CCc1c2c(nc3ccc(O)cc13)-c1cc3c(c(=O)n1C2)COC(=O)[C@]3(O)CC [SN-38]; conditions: max 0.3 µM
Summary of the method: as §1

AZD0156 = compound: CN(C)CCCOc1ccc(-c2ccc3ncc4c(c3c2)n(C2CCOCC2)c(=O)n4C)cn1 [AZD0156]; conditions: max 3 µM
Summary of the method: as §1

AZD4320 = compound: CN(CC[C@H](CSC1=CC=CC=C1)NC2=C(C=C(C=C2)S(=O)(=O)NC(=O)C3=CC=C(C=C3)N4CCC(CC4)[C@H](C5=CC=CC=C5C6=CC=C(C=C6)Cl)O)S(=O)(=O)C(F)(F)F)CCO [AZD4320]; conditions: max 1 µM
Summary of the method: as §1

Alisertib = compound: COc1cc(Nc2ncc3c(n2)-c2ccc(Cl)cc2C(c2c(F)cccc2OC)=NC3)ccc1C(=O)O [Alisertib]; conditions: max 10 µM
Summary of the method: as §1

Etoposide = compound: COc1cc([C@@H]2c3cc4c(cc3[C@@H](O[C@@H]3O[C@@H]5CO[C@@H](C)O[C@H]5[C@H](O)[C@H]3O)[C@H]3COC(=O)[C@H]23)OCO4)cc(OC)c1O [Etoposide]; conditions: max 10 µM
Summary of the method: as §1

Gefitinib = compound: COc1cc2ncnc(Nc3ccc(F)c(Cl)c3)c2cc1OCCCN1CCOCC1 [Gefitinib]; conditions: max 10 µM
Summary of the method: as §1

Prexasertib = compound: COc1cccc(OCCCN)c1-c1cc(Nc2cnc(C#N)cn2)n[nH]1 [Prexasertib]; conditions: max 1 µM
Summary of the method: as §1

Doxorubicin = compound: COc1cccc2c1C(=O)c1c(O)c3c(c(O)c1C2=O)C[C@@](O)(C(=O)CO)C[C@@H]3O[C@H]1C[C@H](N)[C@H](O)[C@H](C)O1 [Doxorubicin]; conditions: max 1 µM
Summary of the method: as §1

AZD5153 = compound: COc1nnc2ccc(N3CCC(c4ccc(OCCN5CCN(C)C(=O)[C@H]5C)cc4)CC3)nn12 [AZD5153]; conditions: max 1 µM
Summary of the method: as §1

Lapatinib = compound: CS(=O)(=O)CCNCc1ccc(-c2ccc3ncnc(Nc4ccc(OCc5cccc(F)c5)c(Cl)c4)c3c2)o1 [Lapatinib]; conditions: max 10 µM
Summary of the method: as §1

AZD8186 = compound: C[C@@H](Nc1cc(F)cc(F)c1)c1cc(C(=O)N(C)C)cc2c(=O)cc(N3CCOCC3)oc12 [AZD8186]; conditions: max 10 µM
Summary of the method: as §1

Crizotinib = compound: C[C@@H](Oc1cc(-c2cnn(C3CCNCC3)c2)cnc1N)c1c(Cl)ccc(F)c1Cl [Crizotinib]; conditions: max 10 µM
Summary of the method: as §1

Savolitinib = compound: C[C@@H](c1ccc2nccn2c1)n1nnc2ncc(-c3cnn(C)c3)nc21 [Savolitinib]; conditions: max 1 µM
Summary of the method: as §1

AZD6738 = compound: C[C@@H]1COCCN1C2=NC(=NC(=C2)C3(CC3)[S@](=N)(=O)C)C4=C5C=CNC5=NC=C4 [AZD6738]; conditions: max 10 µM
Summary of the method: as §1

AZD5991 = compound: Cc1c2c(nn1C)CSCc1cc(n(C)n1)CSc1cc(c3ccccc3c1)OCCCc1c(C(=O)O)n(C)c3c-2c(Cl)ccc13 [AZD5991]; conditions: max 1 µM
Summary of the method: as §1

AZD7648 = compound: Cc1cc2ncnn2cc1Nc1ncc2c(n1)n(C1CCOCC1)c(=O)n2C [AZD7648]; conditions: max 10 µM
Summary of the method: as §1

Taselisib = compound: Cc1nc(-c2cn3c(n2)-c2ccc(-c4cnn(C(C)(C)C(N)=O)c4)cc2OCC3)n(C(C)C)n1 [Taselisib]; conditions: max 10 µM
Summary of the method: as §1

Selumetinib = compound: Cn1cnc2c(F)c(Nc3ccc(Br)cc3Cl)c(C(=O)NOCCO)cc21 [Selumetinib]; conditions: max 10 µM
Summary of the method: as §1

SRA737 = compound: N#Cc1cnc(Nc2cc(NC[C@H]3CNCCO3)c(C(F)(F)F)cn2)cn1 [SRA737]; conditions: max 10 µM
Summary of the method: as §1

MK-2206 = compound: NC1(c2ccc(-c3nc4ccn5c(=O)[nH]nc5c4cc3-c3ccccc3)cc2)CCC1 [MK-2206]; conditions: max 10 µM
Summary of the method: as §1

Gemcitabine = compound: Nc1ccn([C@@H]2O[C@H](CO)[C@@H](O)C2(F)F)c(=O)n1 [Gemcitabine]; conditions: max 0.3 µM
Summary of the method: as §1

[1] = compound: O=C(Nc1ccc2[nH]nc(-c3ccncc3)c2c1)[C@@H]1CCN(CC(=O)N2CCN(c3ccc(-c4ncccn4)cc3)CC2)C1; conditions: max 5 µM
Summary of the method: as §1

Olaparib = compound: O=C(c1cc(Cc2n[nH]c(=O)c3ccccc23)ccc1F)N1CCN(C(=O)C2CC2)CC1 [Olaparib]; conditions: max 10 µM
Summary of the method: as §1

5-Fluorouracil = compound: O=c1[nH]cc(F)c(=O)[nH]1 [5-Fluorouracil]; conditions: max 20 µM
Summary of the method: as §1

Cell Line | IC50, cell viability 72 h (Carboplatin) | IC50, cell viability 72 h (AZD5363) | IC50, cell viability 72 h (AZD1775) | IC50, cell viability 72 h (Trametinib) | IC50, cell viability 72 h (Paclitaxel) | IC50, cell viability 72 h (Palbociclib) | IC50, cell viability 72 h (AZD1390) | IC50, cell viability 72 h (Venetoclax) | IC50, cell viability 72 h (Dasatinib) | IC50, cell viability 72 h (SG3199) | IC50, cell viability 72 h (AZD2811) | IC50, cell viability 72 h (SN-38) | IC50, cell viability 72 h (AZD0156) | IC50, cell viability 72 h (AZD4320) | IC50, cell viability 72 h (Alisertib) | IC50, cell viability 72 h (Etoposide) | IC50, cell viability 72 h (Gefitinib) | IC50, cell viability 72 h (Prexasertib) | IC50, cell viability 72 h (Doxorubicin) | IC50, cell viability 72 h (AZD5153) | IC50, cell viability 72 h (Lapatinib) | IC50, cell viability 72 h (AZD8186) | IC50, cell viability 72 h (Crizotinib) | IC50, cell viability 72 h (Savolitinib) | IC50, cell viability 72 h (AZD6738) | IC50, cell viability 72 h (AZD5991) | IC50, cell viability 72 h (AZD7648) | IC50, cell viability 72 h (Taselisib) | IC50, cell viability 72 h (Selumetinib) | IC50, cell viability 72 h (SRA737) | IC50, cell viability 72 h (MK-2206) | IC50, cell viability 72 h (Gemcitabine) | IC50, cell viability 72 h [1] | IC50, cell viability 72 h (Olaparib) | IC50, cell viability 72 h (5-Fluorouracil)
NCI-H2009 (Lung Adenocarcinoma) | > 10000 nM | > 10000 nM | 1020 nM | 407 nM | 162 nM | > 10000 nM | > 300 nM | > 1000 nM | > 2000 nM | > 1 nM | > 1000 nM | 190 nM | > 3000 nM | > 1000 nM | 8100 nM | > 10000 nM | > 10000 nM | 846 nM | > 1000 nM | > 1000 nM | > 10000 nM | > 10000 nM | > 10000 nM | > 1000 nM | > 10000 nM | > 1000 nM | > 10000 nM | 6380 nM | > 10000 nM | > 10000 nM | > 10000 nM | > 300 nM | > 5000 nM | > 10000 nM | > 20000 nM
BC-1 (B-Cell Non-Hodgkin's Lymphoma) | > 10000 nM | 4400 nM | 321 nM | > 1000 nM | 12.1 nM | 342 nM | > 300 nM | > 1000 nM | > 2000 nM | > 1 nM | 199 nM | 5.32 nM | 2420 nM | > 1000 nM | 65.3 nM | 770 nM | 9560 nM | 13 nM | 50 nM | 17.5 nM | 8740 nM | > 10000 nM | 1690 nM | > 1000 nM | 2950 nM | 87.2 nM | > 10000 nM | > 10000 nM | > 10000 nM | 2700 nM | 4100 nM | 15.4 nM | > 5000 nM | > 10000 nM | 17200 nM
